Laboratory results reported in patent US20130287721A1, “METHOD FOR COUNTERACTING AMMONIA MALODOR” (Firmenich SA, priority 2010, published 2013).

System: ammonia lateralization threshold
Test: Panel evaluation of the lateralization threshold (LT) of ammonia alone and in combination with a PRM
Type: in vivo, panellists
Design: LT of ammonia Panellist 1 Cond II / LT of ammonia Panellist 2 Cond II / LT of ammonia Panellist 3 Cond II: unit not given here
Details: for Ammonia LT Panellist 1 Cond II / Ammonia LT Panellist 2 Cond II / Ammonia LT Panellist 3 Cond II / Ammonia LT Panellist 1 % Δ / Ammonia LT Panellist 2 % Δ / Ammonia LT Panellist 3 % Δ: Table 3; for Ammonia LT Panellist 1 Cond II / Ammonia LT Panellist 2 Cond II / Ammonia LT Panellist 3 Cond II: ammonia stimulus combined with PRM stimulus (concentration of Table 2 in propylene glycol); for Ammonia LT Panellist 1 % Δ / Ammonia LT Panellist 2 % Δ / Ammonia LT Panellist 3 % Δ / LT of ammonia Panellist 1 %Δ / LT of ammonia Panellist 2 %Δ / LT of ammonia Panellist 3 %Δ: change of ammonia LT, Cond II (with PRM) vs Cond I (ammonia alone); for LT of ammonia Panellist 1 Cond II / LT of ammonia Panellist 2 Cond II / LT of ammonia Panellist 3 Cond II / LT of ammonia Panellist 1 %Δ / LT of ammonia Panellist 2 %Δ / LT of ammonia Panellist 3 %Δ: Table 4; for LT of ammonia Panellist 1 Cond II / LT of ammonia Panellist 2 Cond II / LT of ammonia Panellist 3 Cond II: ammonia stimulus combined with PRM stimulus
Experimental: An ammonia stimulus test range was prepared. To ensure a stable level of ammonia in each stimulus, the ammonia headspace was stabilized by combining appropriate concentrations of NH4Cl, NaOH and H2O instead of simply adding ammonia directly to a solvent. Different concentrations of ammonia were used to create a stimulus test range by utilizing the appropriate amount of each compound (see Table 1).
A stimulus was also prepared for each PRM which was intended to be combined with ammonia stimuli. As the PRMs differed in their potency and to ensure that each PRM stimulus had approximately the same potency, an abbreviated dose response curve was constructed for each PRM by having four panellists evaluate the intensity of five concentration levels of the PRM dissolved in propylene glycol in duplicate. Assessments were made relative to the reference of 170 ppm allyl heptanoate in propylene glycol, which intensity was set to 0. Based upon the average scores, a rough intensity match was made for each PRM utilizing one of the following criteria. If one of the tested concentration levels averaged at or near zero, this concentration level was selected. If the rating created any sort of reasonable curve, the equation of the curve was determined and solved for 0 to arrive at the PRM assessment level. If multiple concentration levels were equally distant form the match level, then the standard deviation across individuals was considered, as were the individual responses. In general, the PRM level was selected to be on average close to 0 with low variability, with two panellists saying the level was a bit too high and the other two panellists saying the level was a bit too low. The PRMs for which a stimulus was prepared are listed in Table 2 below, together with the concentration of the PRM in the stimulus.
Volunteers were screened for their ability to lateralize ammonia stimuli. For the screening, the experimenter measured the participant's lateralization threshold for ammonia using a two-alternative forced choice modified staircase procedure employing a four-in, two-down, one-up rule with a five reversal criterion, as described below, On each trial volunteers were presented with a pair of glass bottles with clean, custom-made nose pieces. One bottle contained ammonia at a particular level selected from Table 1 and the other bottle contained water only. Each bottle was applied to one nostril using the nose piece. The volunteers were asked to identify which bottle in each pair contained ammonia.
If the ammonia stimulus was correctly identified in four consecutive trials, the concentration was decreased by one level of Table 1 on the next trial. If an incorrect answer was provided, the concentration was increased by one level of Table 1. Location (left or right nostril) of the stimulus was randomized over presentations. Testing continued until one of the following occurred: • 1) Five reversals (correct decision followed by an incorrect decision or vice versa) were achieved; • 2) The volunteer gave a correct response twice in a row at the lowest level of Table 1; or • 3) The volunteer gave an incorrect response at the highest level of Table 1.
In the first circumstance, threshold values were then calculated by averaging the last four reversals. In the second circumstance, the LT was the lowest level. In the third circumstance, the LT could not be calculated. Volunteers were considered qualified to participate in the panel evaluation if their LT could be calculated (Circumstance 1).
The LT of ammonia, both alone and in combination with diverse PRM, was determined. A repeated-measures design was used, such that the LT with and without the addition of a PRM were both measured at the same time in one person by utilizing interwoven stimuli presentations. The LT for each PRM was measured by two to three panellists, the third panellists being included if the results of the first to panellists disagreed. […]

Compound	Ammonia LT Panellist 1 Cond II	Ammonia LT Panellist 2 Cond II	Ammonia LT Panellist 3 Cond II	Ammonia LT Panellist 1 % Δ	Ammonia LT Panellist 2 % Δ	Ammonia LT Panellist 3 % Δ	LT of ammonia Panellist 1 Cond II	LT of ammonia Panellist 2 Cond II	LT of ammonia Panellist 3 Cond II	LT of ammonia Panellist 1 %Δ	LT of ammonia Panellist 2 %Δ	LT of ammonia Panellist 3 %Δ
CCCc1ccc(OC)cc1 [Dihydroestragole]	7.3 ppm	71.9 ppm	22.9 ppm	−62%	28%	214%	–	–	–	–	–	–
CCOC(=O)C1=C(C)C=CCC1(C)C [Ethyl 2,6,6-trimethyl-1,3-cyclohexadiene-1-carboxylate]	–	–	–	–	–	–	0.6	0.6	0.2	786%	215%	200%
CCOC(=O)C(C)CC (stereo not drawn) [Ethyl 2-methylbutanoate]	–	–	–	–	–	–	19.6	11.1	11.1	214%	213%	77%
CCOC(=O)C(=O)C(C)CC (stereo not drawn) [Ethyl 3-methyl-2-oxopentanoate]	–	–	–	–	–	–	0.6	0.6	0.6	417%	786%	210%
CCC=CCC=C/C=C/C(=O)OCC [Ethyl (2E)-2,4,7-decatrienoate]	–	–	–	–	–	–	1.1	2.0	2.0	223%	469%	2743%
O=C1CCCCCCCCCCCCCCO1 [Exaltolide ®, Pentadecanolide]	6.1 ppm	71.9 ppm	–	213%	214%	–	–	–	–	–	–	–
CC(C)CC1CC(C)(O)CCO1 (stereo not drawn) [Florol ®, Tetrahydro-2-isobutyl-4-methyl-4(2H)-pyranol]	56.3 ppm	7.3 ppm	22.9 ppm	146%	−62%	0%	–	–	–	–	–	–
CCOC(=O)C1CCC(C(=O)OCC)CC1 (stereo not drawn) [Fructalate ®, Diethyl 1,4-cyclohexane dicarboxylate]	56.3 ppm	188.3 ppm	–	194%	214%	–	–	–	–	–	–	–
CC(C)=CCC/C(C)=C/CO [Geraniol]	6.1 ppm	60.0 ppm	–	−68%	−73%	–	–	–	–	–	–	–
CCCCCC1C(=O)CCC1CC(=O)OC (stereo not drawn) [Hedione ®, Methyl dihydrojasmonate]	7.5 ppm	22.9 ppm	6.1 ppm	23%	−90%	−68%	–	–	–	–	–	–
O=Cc1ccc2c(c1)OCO2 [Heliotropine ®, 1,3-Benzodioxole-5-carbaldehyde]	7.3 ppm	22.9 ppm	2.3 ppm	274%	−87%	−96%	–	–	–	–	–	–
CCC(=O)OCC(C)(C)O[C@@H](C)[C@@H]1CCCC(C)(C)C1 [Helvetolide ®, (+)-(1S,1′R)-2-[1-(3′,3′-dimethyl-1′-cyclohexyl)ethoxy]-2-methylpropyl propanoate]	–	–	–	–	–	–	11.1	2.0	2.0	454%	426%	895%
CCCCCCOC(=O)c1ccccc1O [Hexyl salicylate]	7.3 ppm	188.3 ppm	7.3 ppm	−68%	162%	−62%	–	–	–	–	–	–
CC(CC=O)CCCC(C)(C)O (stereo not drawn) [Hydroxycitronellal]	71.9 ppm	56.1 ppm	22.9 ppm	20%	−22%	20%	–	–	–	–	–	–
CCCC(=O)OCC(C)C [Isopropylmethyl butyrate]	188.4 ppm	188.3 ppm	–	81809%	235%	–	–	–	–	–	–	–
CC(C=O)Cc1ccc(C(C)(C)C)cc1 (stereo not drawn) [Lilial ®, 3-(4-Tert-butylphenyl)-2-methylpropanal]	22.9 ppm	7.3 ppm	19.1 ppm	300%	−96%	0%	–	–	–	–	–	–
Cc1ccc2c(c1)CC(C)(CO)C2 (stereo not drawn) [Lilyflore ®, 2,5-Dimethyl-2-indanmethanol]	60.0 ppm	176.5 ppm	7.3 ppm	162%	−6%	−84%	–	–	–	–	–	–
C=CC(C)(O)CCC=C(C)C (stereo not drawn) [Linalool]	188.3 ppm	22.9 ppm	56.3 ppm	2480%	0%	214%	–	–	–	–	–	–
CC(C)[C@H]1CC[C@@H](CO)CC1 [Mayol ®, cis-7-P-menthanol]	–	–	–	–	–	–	0.6	3.5	3.5	800%	212%	212%
COC(=O)c1ccccc1 [Methyl benzoate]	7.3 ppm	60 ppm	–	213%	162%	–	–	–	–	–	–	–
CCCCC[C@@H]1C(=O)CC[C@@H]1CC(=O)OC [Paradisone ®, (+)-Methyl (1R)-cis-3-oxo-2-pentyl-1-cyclopentaneacetate]	22.9 ppm	225.5 ppm	6.1 ppm	0%	214%	−73%	–	–	–	–	–	–
C=C1CCCC(C)(C)C1C(=O)OC (stereo not drawn) [Romascone ®, Methyl 2,2-dimethyl-6-methylene-1-cyclohexanecarboxylate]	–	–	–	–	–	–	11.1	2.0	6.3	1685%	77%	1686%
CC1=C(C=O)C(C)(C)CC=C1 [Safranal]	22.9 ppm	2.2E−03 ppm	–	20%	3088%	–	–	–	–	–	–	–
CCCOC(=O)[C@H](C)OC(C)(C)CC [Sclareolate ®, Propyl (S)-2-(1,1-dimethylpropoxy)propanoate]	–	–	–	–	–	–	1.1	1.1	0.6	465%	223%	−2%
Cedrenol	2.3 ppm	60 ppm	2.3 ppm	−68%	162%	−96%	–	–	–	–	–	–
